Experimental data reported in publication PMC12736958 (Pharmaceutics, 2025).
In brackets after ≈: the same amount, converted by molar mass. Like-named read-outs stand apart in the source and are kept apart here.

Key:
[1] = equilibrium solubility of crystalline Cur in excipient solutions; type: physicochemical; settings: read-out: equilibrium solubility (Cur con.)
Protocol: Excess crystalline Cur was suspended in each solution, vortexed (1 min), sonicated (10 min), and incubated (37 °C, 24 h). After incubation, suspensions were filtered (0.22 μm), and Cur concentration in the filtrate was quantified using HPLC/UV-Vis (HPLC/UV-Vis Method section). All experiments were performed in quadruplicate (n = 4).
Cur content in in vitro dissolution samples was quantified using a Waters 2695 Alliance HPLC system (Waters Corporation, Milford, MA, USA) equipped with a Waters 2998 photodiode array (PDA) detector. Separation was performed on an XBridge® C18 column (4.6 × 250 mm, 5.0 μm; Waters) maintained at 25 °C. The mobile phase, composed of water and methanol (80:20, v/v), was delivered isocratically at a flow rate of 1.0 mL/min. The injection volume was 10 μL, and detection was performed at 430 nm, and Cur eluted at approximately 4.80 min. […] All data were acquired in triplicate (n = 3) and processed using Empower®3 Software (Waters).

[2] = cytotoxicity assay (CCK-8 cell viability); type: cell-based, canine; settings: dog, MDCK cells, pH 7.4, MDCK cells, 4 h treatment, read-out: IC50 (cytotoxicity, Cur-equivalent)
Protocol: Madin-Darby Canine Kidney (MDCK) cells were seeded in 96-well plates (1 × 10^5 cells/well) and cultured for 24 h at 37 °C in complete DMEM (10% FBS, 1% penicillin–streptomycin) under 5% CO2. Cells were treated for 4 h with 100 µL of complete DMEM media (pH 7.4) containing crystalline Cur, amorphous Cur, binary Cur/P188 ASD (1:8, w/w), or ternary Cur/P188/TW80 or Cur/P188/SLS ASDs (1:8:1, w/w/w), at Cur-equivalent concentrations of 0 (vehicle), 2, 10, 25, 50, 100, and 200 μg/mL. After treatment, cells were washed three times with PBS (pH 7.4). Cell viability was assessed using a CCK-8 assay: 100 µL of serum-free DMEM and 10 µL of CCK-8 reagent were added to each well, followed by incubation for 2 h. Absorbance was measured at 450 nm using a Multiskan GO microplate reader (Thermo Fisher Scientific, Vantaa, Finland).
Cell viability was calculated according to the following equation:Viability (%) = [(As − Aᵦ)/(Ac − Aᵦ)] × 100% where
• As is the absorbance of experimental wells (cells + treatment + CCK-8); • Ac is the absorbance of control wells (cells + medium + CCK-8, no drug); • Aᵦ is the absorbance of blank wells (medium + CCK-8, no cells, no drug).
All experiments were performed in quintuplicate (n = 5).

solubility thermodynamic at 24 h ([1]; aqueous P188/SLS solution (8 mg/mL + 1 mg/mL), pH 7, aqueous with cosolvent or surfactant or cyclodextrin, thermodynamic from solid, P188/SLS 8 mg/mL + 1 mg/mL in water, 37 °C): 8.5 µg/mL | solubility thermodynamic at 24 h ([1]; aqueous P188/TW80 solution (8 mg/mL + 1 mg/mL), pH 7, aqueous with cosolvent or surfactant or cyclodextrin, thermodynamic from solid, P188/TW80 8 mg/mL + 1 mg/mL in water, 37 °C): 10.3 µg/mL | solubility thermodynamic at 24 h ([1]; aqueous P188 solution (8 mg/mL), pH 7, P188 8 mg/mL in water, 37 °C): < 0.1 µg/mL | solubility thermodynamic at 24 h ([1]; aqueous SLS solution (1 mg/mL), pH 7, SLS 1 mg/mL in water, 37 °C): < 0.1 µg/mL | solubility thermodynamic at 24 h ([1]; aqueous TW80 solution (1 mg/mL), pH 7, aqueous with cosolvent or surfactant or cyclodextrin, thermodynamic from solid, TW80 1 mg/mL in water, 37 °C): 9.1 µg/mL (≈ 24.7 µM) | solubility thermodynamic at 24 h ([1]; thermodynamic from solid, pure water, pH 7.0, 37 °C, filtered 0.22 μm): < 0.1 µg/mL
Compound: COc1cc(/C=C/C(=O)CC(=O)/C=C/c2ccc(O)c(OC)c2)ccc1O [Crystalline Cur, Curcumin]
IC50 at 4 h [2]: 82.2 µg/mL
